Where two headings read alike, the source gives them in different places.
Key:
human PPARalpha = biological target: T1, human PPARalpha (Homo sapiens, UniProt Q07869); assay: Cellular PPARalpha assay (HEK PPARalpha reporter cell line, luciferase); assay type: cell-based; conditions: GR-GAL4-humanPPARalpha-LBD
T1 construct: human PPARalpha receptor (amino acids S167-Y468); expressed in transfected cells; host or cells: HEK cells, stably transfected (pcDNA3, CMV promoter)
T1 sequence (Q07869 167-468): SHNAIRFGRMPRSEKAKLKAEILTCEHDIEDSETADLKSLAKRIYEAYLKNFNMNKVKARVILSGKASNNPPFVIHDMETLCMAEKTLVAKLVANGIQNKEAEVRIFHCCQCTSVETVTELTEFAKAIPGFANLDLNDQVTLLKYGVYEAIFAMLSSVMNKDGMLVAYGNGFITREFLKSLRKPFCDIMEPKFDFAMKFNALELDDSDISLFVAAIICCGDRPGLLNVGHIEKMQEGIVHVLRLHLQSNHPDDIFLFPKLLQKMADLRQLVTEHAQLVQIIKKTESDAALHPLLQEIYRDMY
Protocol: Determination of EC50 Values of PPAR Agonists in the Cellular PPARalpha Assay
(§1) The potency of substances which bind to human PPARalpha and activate it in an agonistic manner is analyzed using a stably transfected HEK cell line (HEK=human embryo kidney) which is referred to here as PPARalpha reporter cell line. It contains two genetic elements, a luciferase reporter element (pdeltaM-GAL4-Luc-Zeo) and a PPARalpha fusion protein (GR-GAL4-humanPPARalpha-LBD) which mediates expression of the luciferase reporter element depending on a PPARalpha ligand. The stably and constitutively expressed fusion protein GR-GAL4-humanPPARalpha-LBD binds in the cell nucleus of the PPARalpha reporter cell line via the GAL4 protein portion to the GAL4 DNA binding motifs 5′-upstream of the luciferase reporter element which is stably integrated in the genome of the cell line. There is only weak expression of the luciferase reporter gene in the absence of a PPARalpha ligand if fatty acid-depleted fetal calf serum (cs-FCS) is used in the assay. PPARalpha ligands bind and activate the PPARalpha fusion protein and thereby stimulate the expression of the luciferase reporter gene. The luciferase which is formed can be detected by means of chemiluminescence via an appropriate substrate.
The PPARalpha reporter cell line was prepared in two stages. Firstly, the luciferase reporter element was constructed and stably transfected into HEK cells. For this purpose, five binding sites of the yeast transcription factor GAL4 (Accession # AF264724) were cloned in 5′-upstream of a 68 bp-long minimal MMTV promoter (Accession # V01175). The minimal MMTV promoter section contains a CCAAT box and a TATA element in order to enable efficient transcription by RNA polymerase II. The cloning and sequencing of the GAL4-MMTV construct took place in analogy to the description of Sambrook J. et al. (Molecular cloning, Cold Spring Harbor Laboratory Press, 1989). Then the complete Photinus pyralis gene (Accession # M15077) was cloned in 3′-downstream of the GAL4-MMTV element. After sequencing, the luciferase reporter element consisting of five GAL4 binding sites, MMTV promoter and luciferase gene was recloned into a plasmid which confers zeocin resistance in order to obtain the plasmid pdeltaM-GAL4-Luc-Zeo. This vector was transfected into HEK cells in accordance with the statements in Ausubel, F. M. et al. (Current protocols in molecular biology, Vol. 1-3, John Wiley & Sons, Inc., 1995).
In a second step, the PPARalpha fusion protein (GR-GAL4-humanPPARalpha-LBD was introduced into the stable cell clone described. For this purpose, initially the cDNA coding for the N-terminal 76 amino acids of the glucocorticoid receptor (Accession # P04150) was linked to the cDNA section coding for amino acids 1-147 of the yeast transcription factor GAL4 (Accession # P04386). The cDNA of the ligand-binding domain of the human PPARalpha receptor (amino acids S167-Y468; Accession # S74349) was cloned in at the 3′-end of this GR-GAL4 construct. The fusion construct prepared in this way (GR-GAL4-humanPPARalpha-LBD) was recloned into the plasmid pcDNA3 (Invitrogen) in order to enable constitutive expression therein by the cytomegalovirus promoter. This plasmid was linearized with a restriction endonuclease and stably transfected into the previously described cell clone containing the luciferase reporter element. The finished PPARalpha reporter cell line which contains a luciferase reporter element and constitutively expresses the PPARalpha fusion protein (GR-GAL4-human PPARalpha-LBD) was isolated by selection with zeocin (0.5 mg/ml) and G418 (0.5 mg/ml).
The activity of PPARalpha agonists is determined in a 3-day assay, which is described below: […]

human PPARdelta = biological target: T2, human PPARdelta (Homo sapiens, UniProt Q03181); assay: Cellular PPARdelta assay (HEK PPARdelta reporter cell line, luciferase); assay type: cell-based; conditions: GR-GAL4-humanPPARdelta-LBD
T2 construct: human PPARdelta receptor (amino acids S139-Y441); expressed in transfected cells; host or cells: HEK cells, stably transfected (pcDNA3, CMV promoter)
T2 sequence (Q03181 139-441): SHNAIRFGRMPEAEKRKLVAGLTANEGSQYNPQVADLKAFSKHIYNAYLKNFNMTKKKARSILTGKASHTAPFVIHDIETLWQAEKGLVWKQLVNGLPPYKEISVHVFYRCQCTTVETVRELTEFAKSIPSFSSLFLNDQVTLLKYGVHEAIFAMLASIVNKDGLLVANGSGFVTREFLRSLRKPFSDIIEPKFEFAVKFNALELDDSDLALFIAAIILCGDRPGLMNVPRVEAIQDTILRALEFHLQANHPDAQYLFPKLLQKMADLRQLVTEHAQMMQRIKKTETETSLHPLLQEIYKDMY
Protocol: Determination of EC50 Values of PPAR Agonists in the Cellular PPARdelta Assay
as §1, with “PPARdelta” for “PPARalpha”, “In analogy to the assay described for PPARalpha, the PPARdelta reporter cell line also” for “It”, “(GR-GAL4-humanPPARdelta-LBD)” for “(GR-GAL4-humanPPARalpha-LBD)”, “GR-GAL4-humanPPARdelta-LBD” for “GR-GAL4-humanPPARalpha-LBD”, “little” for “weak”, “stimulate” for “stimulate the”
The production of the stable PPARdelta reporter cell line is based on a stable HEK-cell clone which was stably transfected with a luciferase reporter element. This step was already described above in the section “construction of the PPARalpha reporter cell line”. In a second step, the PPARdelta fusion protein (GR-GAL4-humanPPARdelta-LBD was stably introduced into this cell clone. For this purpose, the cDNA coding for the N-terminal 76 amino acids of the glucocorticoid receptor (Accession # P04150) was linked to the cDNA section coding for amino acids 1-147 of the yeast transcription factor GAL4 (Accession # P04386). The cDNA of the ligand-binding domain of the human PPARdelta receptor (amino acids S139-Y441; Accession # L07592) was cloned in at the 3′-end of this GR-GAL4 construct. The fusion construct prepared in this way (GR-GAL4-humanPPARdelta-LBD) was recloned into the plasmid pcDNA3 (Invitrogen) in order to enable constitutive expression by the cytomegalovirus promoter. This plasmid was linearized with a restriction endonuclease and stably transfected into the previously described cell clone containing the luciferase reporter element. The resulting PPARdelta reporter cell line which contains a luciferase reporter element and constitutively expresses the PPARdelta fusion protein (GR-GAL4-human PPARdelta-LBD) was isolated by selection with zeocin (0.5 mg/ml) and G418 (0.5 mg/ml).
The activity of PPARdelta agonists is determined in a 3-day assay in exact analogy to the procedure already described for the PPARalpha reporter cell line except that the PPARdelta reporter cell line and a specific PPARdelta agonist was used as a standard to control test efficacy.

[1] = diabetic animal model; cited from earlier work
[2] = obese, insulin resistant rhesus monkeys; cited from earlier work
[3] = rhesus and cynomolgus monkeys; cited from earlier work
[4] = two weeks clinical trials in healthy volunteers; cited from earlier work

SMILES	EC50 (human PPARalpha) [nM]	EC50 (human PPARdelta) [nM]	other results
CCCCc1nc(-c2ccc(C(F)(F)F)cc2)sc1COc1ccc(Cc2noc(=O)[nH]2)c(Cl)c1 [Example 10, 3-{4-[4-Butyl-2-(4-trifluoromethyl-phenyl)-thiazol-5-ylmethoxy]-2-chloro-benzyl}-4H-[1,2,4]oxadiazol-5-one]	770	11	–
CCCCc1nc(-c2ccc(C(F)(F)F)cc2)sc1COc1cc(F)c(-c2noc(=O)[nH]2)c(F)c1 [Example 13, 3-{4-[4-Butyl-2-(4-trifluoromethyl-phenyl)-thiazol-5-ylmethoxy]-2,6-difluoro-phenyl}-4H-[1,2,4]oxadiazol-5-one]	360	10	–
Cc1oc(-c2ccc(-c3ccccc3)cc2)nc1COc1ccc(-c2noc(=O)[nH]2)c(Cl)c1 [Example 30, 3-[4-(2-Biphenyl-4-yl-5-methyl-oxazol-4-ylmethoxy)-2-chloro-phenyl]-4H-[1,2,4]oxadiazol-5-one]	250	16	–
Cc1sc(-c2ccc(S(F)(F)(F)(F)F)cc2)nc1CCOc1ccc(-c2noc(=O)[nH]2)c(Cl)c1 [Example 32]	320	310	–
O=c1[nH]c(-c2ccc(OCc3sc(-c4ccc(C(F)(F)F)cc4)nc3CCCOCc3ccccc3)cc2Cl)no1 [Example 50, 3-{4-[4-(3-Benzyloxy-propyl)-2-(4-trifluoromethyl-phenyl)-thiazol-5-ylmethoxy]-2-chloro-phenyl}-4H-[1,2,4]oxadiazol-5-one]	420	0.7	–
CCCc1c(OCCCOc2ccc(OCC(=O)O)cc2)ccc(C(C)=O)c1O [Example L-165041]	–	–	plasma cholesterol [1]: raises
Cc1cc(SCc2sc(-c3ccc(C(F)(F)F)cc3)nc2C)ccc1OCC(=O)O [GW501516]	–	–	HDL-cholesterol [2]: raises; insulin levels [2]: decreases; plasma LDL-cholesterol [2]: decreases; triglycerides [2]: decreases
CCCc1c(OCCCSc2nnc(SCC(=O)O)s2)ccc(C(C)=O)c1O [YM-16638]	–	–	plasma lipids [3]: significantly lowers; plasma lipids [4]: acts in a similar manner

More lines, main results first:

EC50 (human PPARalpha) [nM]	EC50 (human PPARdelta) [nM]	SMILES	other results
1660	56	Cc1nc(-c2ccc(C(F)(F)F)cc2)sc1COc1ccc(-c2noc(=O)[nH]2)c(Cl)c1 [Example 4, 3-{2-Chloro-4-[4-methyl-2-(4-trifluoromethyl-phenyl)-thiazole-5-ylmethoxy]-phenyl}-4H-[1,2,4]oxadiazole-5-one]	–
1330	68	Cc1nc(-c2ccc(C(F)(F)F)cc2)sc1CSc1ccc(-c2noc(=O)[nH]2)cc1 [Example 5, 3-{4-[4-Methyl-2-(4-trifluoromethyl-phenyl)-thiazole-5-ylmethylsulfanyl]-phenyl}-4H-[1,2,4]oxadiazole-5-one]	–
150	3	CCCCc1nc(-c2ccc(C(F)(F)F)cc2)sc1COc1ccc(-c2noc(=O)[nH]2)c(C(F)(F)F)c1 [Example 15, 3-{4-[4-Butyl-2-(4-trifluoromethyl-phenyl)-thiazol-5-ylmethoxy]-2-trifluoromethyl-phenyl}-4H-[1,2,4]oxadiazol-5-one]	–
> 10000	15	CCCCc1nc(-c2ccc(C(F)(F)F)cc2)sc1COc1ccc(-c2noc(=O)[nH]2)c(OC)c1 [Example 18, 3-{4-[4-Butyl-2-(4-trifluoromethyl-phenyl)-thiazol-5-ylmethoxy]-2-methoxy-phenyl}-4H-[1,2,4]oxadiazol-5-one]	–
1560	55	O=c1[nH]c(-c2ccc(OCc3sc(-c4ccc(C(F)(F)F)cc4)nc3CCCCO)cc2Cl)no1 [Example 20, 3-{2-Chloro-4-[4-(4-hydroxy-butyl)-2-(4-trifluoromethyl-phenyl)-thiazol-5-ylmethoxy]-phenyl}-4H-[1,2,4]oxadiazol-5-one]	–
120	23	CCCCc1nc(-c2ccc(C(F)(F)F)cc2)sc1COCc1ccc(-c2noc(=O)[nH]2)c(F)c1 [Example 28, 3-{4-[4-Butyl-2-(4-trifluoromethyl-phenyl)-thiazol-5-ylmethoxymethyl]-2-fluoro-phenyl}-4H-[1,2,4]oxadiazol-5-one]	–
230	1	COCCOCc1nc(-c2ccc(C(F)(F)F)cc2)sc1COc1ccc(-c2noc(=O)[nH]2)c(Cl)c1 [Example 34, 3-{2-Chloro-4-[4-(2-methoxy-ethoxymethyl)-2-(4-trifluoromethyl-phenyl)-thiazol-5-ylmethoxy]-phenyl}-4H-[1,2,4]oxadiazol-5-one]	–

— patent US7709509B2, “Oxadiazolones and derivatives thereof as peroxisome proliferator-activated receptor (PPAR) delta agonists” (Sanofi-Aventis Deutschland GmbH, priority 2004, dated 2010)
